According to US8772287B2, “Pyrimidinyl and 1,3,5-triazinyl benzimidazole sulfonamides and their use in cancer therapy” (VetDC, Inc., priority 2009, dated 2014):
Counter-ions that a name gives are not always drawn. Like-named read-outs stand apart in the source and are kept apart here.

Assays:
NZB5 = assay: Cellular growth inhibition, NZB5 (3H-thymidine incorporation); type: cell-based, human
Method: (§1) The compounds were evaluated against two early passage human cell lines NZB5 and NZOV9 (Marshall et al., Oncol. Res. 2004, 14, 297). The cells were grown in ITS medium (α-modified minimal essential medium supplemented insulin, transferrin, selenite, and 5% fetal bovine serum) and grown on 96-well tissue culture plates under an atmosphere of 5% O2, 5% CO2, and 90% N2. Individual wells contained 500-1,000 cells (depending on the growth rate) in a volume of 150 μL. Compounds were added at 10-fold concentration steps to a maximum of 20 μM and plates were incubated for five days, with ^3H-thymidine being added over the last 6 hrs. Cells were harvested and incorporated radioactivity measured. Duplicate samples were analyzed for each compound dose with multiple control samples.

NZOV9 = assay: Cellular growth inhibition, NZOV9 (3H-thymidine incorporation); type: cell-based, human
Method: as §1

[1] = Homo sapiens, NZB5, read-out: Cell IC50 NZB5
[2] = Homo sapiens, NZOV9, read-out: Cell IC50 NZOV9
[3] = read-out: Cell IC50 NZB5, five days incubation, 3H-thymidine over the last 6 hrs
[4] = read-out: Cell IC50 NZOV9, five days incubation, 3H-thymidine over the last 6 hrs
[5] = Homo sapiens, NZB5, five days incubation, 3H-thymidine over the last 6 hrs, read-out: Cell IC50 NZB5
[6] = Homo sapiens, NZOV9, five days incubation, 3H-thymidine over the last 6 hrs, read-out: Cell IC50 NZOV9

For `COc1cccc2c1nc(C(F)F)n2-c1nc(N2CCOCC2)nc(N(C)C2CCCN(S(C)(=O)=O)C2)n1` (centres unmarked), the melting point was 201 to 203 °C.

With `COc1cccc2c1nc(C(F)F)n2-c1nc(OC2CCN(S(=O)(=O)CCN3CCOCC3)CC2)nc(N2CCOCC2)n1` (as salt: hydrochloride) [Example 51, 2-(difluoromethyl)-4-methoxy-1-{4-(4-morpholinyl)-6-[(1-{[2-(4-morpholinyl)ethyl]sulfonyl}-4-piperidinyl)oxy]-1,3,5-triazin-2-yl}-1H-benzimidazole] the melting point was 255 to 259 °C.

`COc1cccc2c1nc(C(F)F)n2-c1nc(N2CCOCC2)nc(N(CCCN(C)C)C2CCN(S(=O)(=O)CCl)CC2)n1` (as salt: hydrochloride) [Example 59, N^1-{1-[(chloromethyl)sulfonyl]-4-piperidinyl}-N^1-[4-[2-(difluoromethyl)-4-methoxy-1H-benzimidazol-1-yl]-6-(4-morpholinyl)-1,3,5-triazin-2-yl]-N^3,N^3-dimethyl-1,3-propanediamine] showed a melting point of 222 to 225 °C.

`COc1cccc2c1nc(C(F)F)n2-c1nc(N2CCOCC2)nc(N2CCC(N(CCCN(C)C)S(=O)(=O)CCl)CC2)n1` (as salt: hydrochloride) [Example 60, chloro-N-{1-[4-[2-(difluoromethyl)-4-methoxy-1H-benzimidazol-1-yl]-6-(4-morpholinyl)-1,3,5-triazin-2-yl]-4-piperidinyl}-N-[3-(dimethylamino)propyl]methanesulfonamide] showed a melting point of 260 to 263 °C.

For `CN(C)CCS(=O)(=O)N1CCN(c2nc(N3CCOCC3)nc(-n3c(C(F)F)nc4ccccc43)n2)CC1` (as salt: hydrochloride) [Example 83, N-[2-({4-[4-[2-(difluoromethyl)-1H-benzimidazol-1-yl]-6-(4-morpholinyl)-1,3,5-triazin-2-yl]-1-piperazinyl}sulfonyl)ethyl]-N,N-dimethylamine], the melting point was 244 to 246 °C.

`COc1cccc2c1nc(C(F)F)n2-c1nc(-c2ccc(NS(=O)(=O)CCN(C)C)cc2)nc(N2CCOCC2)n1` (as salt: methanesulfonate) [Example 74, N-{4-[4-[2-(difluoromethyl)-4-methoxy-1H-benzimidazol-1-yl]-6-(4-morpholinyl)-1,3,5-triazin-2-yl]phenyl}-2-(dimethylamino)ethanesulfonamide] gave a melting point of 218 to 220 °C.

`COc1cccc2c1nc(C(F)F)n2-c1nc(-c2ccc(N(C)S(=O)(=O)CCN(C)C)cc2)nc(N2CCOCC2)n1` (as salt: methanesulfonate) [Example 75, N-{4-[4-[2-(difluoromethyl)-4-methoxy-1H-benzimidazol-1-yl]-6-(4-morpholinyl)-1,3,5-triazin-2-yl]phenyl}-2-(dimethylamino)-N-methylethanesulfonamide] showed a melting point of 218 to 220 °C.

In the case of `COc1cc(N)cc2c1nc(C(F)F)n2-c1nc(N2CCOCC2)nc(N2CCN(S(=O)(=O)CCN(C)C)CC2)n1` (as salt: methanesulfonate) [Example 84, N-[2-({4-[4-[6-amino-2-(difluoromethyl)-4-methoxy-1H-benzimidazol-1-yl]-6-(4-morpholinyl)-1,3,5-triazin-2-yl]-1-piperazinyl}sulfonyl)ethyl]-N,N-dimethylamine], the melting point is reported as 238 °C (dec.).

`COc1cccc2c1nc(C(F)F)n2-c1nc(-c2ccc(S(=O)(=O)N3CCN(C)CC3)cc2)nc(N2CCOCC2)n1` (as salt: methanesulfonate) [Example 95, 2-(difluoromethyl)-4-methoxy-1-[4-{4-[(4-methyl-1-piperazinyl)sulfonyl]phenyl}-6-(4-morpholinyl)-1,3,5-triazin-2-yl]-1H-benzimidazole] showed a melting point of 289 to 292 °C.

Molecule `COc1cccc2c1nc(C(F)F)n2-c1nc(N2CCOCC2)c2cnn(C3CCN(S(=O)(=O)CCN(C)C)CC3)c2n1` (as salt: methanesulfonate) [Example 99, N-[2-({4-[6-[2-(difluoromethyl)-4-methoxy-1H-benzimidazol-1-yl]-4-(4-morpholinyl)-1H-pyrazolo[3,4-d]pyrimidin-1-yl]-1-piperidinyl}sulfonyl)ethyl]-N,N-dimethylamine] has a melting point of 191 to 193 °C.

For `COc1cccc2c1nc(C(F)F)n2-c1nc(N2CCOCC2)nc(N2CCC(NS(C)(=O)=O)C2)n1` (stereo in doubt) [Example 36, N-{(3R)-1-[4-[2-(difluoromethyl)-4-methoxy-1H-benzimidazol-1-yl]-6-(4-morpholinyl)-1,3,5-triazin-2-yl]pyrrolidinyl}methanesulfonamide], the IC50 (NZB5; [1]) was 100 to 1000 nM, the IC50 (NZOV9; [2]) was under 100 nM and the melting point was 290 to 292 °C.

For `COc1cccc2c1nc(C(F)F)n2-c1nc(N2CCOCC2)nc(N2CCC(N(C)S(C)(=O)=O)C2)n1` (stereo in doubt) [Example 37, N-{(3R)-1-[4-[2-(difluoromethyl)-4-methoxy-1H-benzimidazol-1-yl]-6-(4-morpholinyl)-1,3,5-triazin-2-yl]pyrrolidinyl}-N-methylmethanesulfonamide], the IC50 (NZB5; [1]) was 100 to 1000 nM, the IC50 (NZOV9; [2]) was under 100 nM and the melting point was 242 to 244 °C.

Molecule `COc1cccc2c1nc(C(F)F)n2-c1nc(N2CCOCC2)nc(N2CCC(NS(C)(=O)=O)C2)n1` (stereo in doubt) [Example 38, N-{(3S)-1-[4-[2-(difluoromethyl)-4-methoxy-1H-benzimidazol-1-yl]-6-(4-morpholinyl)-1,3,5-triazin-2-yl]pyrrolidinyl}methanesulfonamide] has an IC50 (NZB5; [1]) of 100 to 1000 nM, an IC50 (NZOV9; [2]) of under 100 nM and a melting point of 290 to 292 °C.

Work on `COc1cccc2c1nc(C(F)F)n2-c1nc(N2CCOCC2)nc(N2CCC(N(C)S(C)(=O)=O)C2)n1` (stereo in doubt) [Example 39, N-{(3S)-1-[4-[2-(difluoromethyl)-4-methoxy-1H-benzimidazol-1-yl]-6-(4-morpholinyl)-1,3,5-triazin-2-yl]pyrrolidinyl}-N-methylmethanesulfonamide] yielded an IC50 (NZB5; [1]) of 100 to 1000 nM, an IC50 (NZOV9; [2]) of under 100 nM and a melting point of 244 to 247 °C.

With `COc1cccc2c1nc(C(F)F)n2-c1nc(N2CCOCC2)nc(N2CCCC(NS(C)(=O)=O)C2)n1` (stereo in doubt) [Example 44, N-{(3R)-1-[4-[2-(difluoromethyl)-4-methoxy-1H-benzimidazol-1-yl]-6-(4-morpholinyl)-1,3,5-triazin-2-yl]piperidinyl}methanesulfonamide] the IC50 (NZB5; [1]) was 100 to 1000 nM, the IC50 (NZOV9; [2]) was under 100 nM and the melting point was 220 to 221 °C.

Work on `COc1cccc2c1nc(C(F)F)n2-c1nc(N2CCOCC2)nc(N2CCCC(NS(=O)(=O)CCl)C2)n1` (stereo in doubt) [Example 62, chloro-N-{(3S)-1-[4-[2-(difluoromethyl)-4-methoxy-1H-benzimidazol-1-yl]-6-(4-morpholinyl)-1,3,5-triazin-2-yl]-3-piperidinyl}methanesulfonamide] yielded a melting point of 166 to 168 °C.

Work on `COc1cccc2c1nc(C(F)F)n2-c1nc(N[C@H]2CCN(S(C)(=O)=O)C2)nc(N2CCOCC2)n1` [Example 34, 4-[2-(difluoromethyl)-4-methoxy-1H-benzimidazol-1-yl]-N-[(3S)-1-(methylsulfonyl)pyrrolidinyl]-6-(4-morpholinyl)-1,3,5-triazin-2-amine] yielded an IC50 (NZB5; [3]) of 100 to 1000 nM and an IC50 (NZOV9; [4]) of under 100 nM.

`COc1cccc2c1nc(C(F)F)n2-c1nc(N2CCOCC2)nc(N(C)[C@H]2CCN(S(C)(=O)=O)C2)n1` [Example 35, 4-[2-(difluoromethyl)-4-methoxy-1H-benzimidazol-1-yl]-N-methyl-N-[(3S)-1-(methylsulfonyl)pyrrolidinyl]-6-(4-morpholinyl)-1,3,5-triazin-2-amine] showed an IC50 (NZB5; [3]) of under 100 nM and an IC50 (NZOV9; [4]) of under 100 nM.

`COc1cccc2c1nc(C(F)F)n2-c1nc(OC2CCN(S(=O)(=O)CCN3CCOCC3)CC2)nc(N2CCOCC2)n1` [Example 51, 2-(difluoromethyl)-4-methoxy-1-{4-(4-morpholinyl)-6-[(1-{[2-(4-morpholinyl)ethyl]sulfonyl}-4-piperidinyl)oxy]-1,3,5-triazin-2-yl}-1H-benzimidazole] showed an IC50 (NZB5; [5]) of over 1000 nM and an IC50 (NZOV9; [6]) of 100 to 1000 nM.

Molecule `COc1cccc2c1nc(C(F)F)n2-c1nc(N[C@H]2CC[C@@H](NS(C)(=O)=O)CC2)nc(N2CCOCC2)n1` [Example 79, cis-N-(4-{[4-[2-(difluoromethyl)-4-methoxy-1H-benzimidazol-1-yl]-6-(4-morpholinyl)-1,3,5-triazin-2-yl]amino}cyclohexyl)methanesulfonamide] has an IC50 (NZB5; [1]) of 100 to 1000 nM and an IC50 (NZOV9; [2]) of under 100 nM.

For `COc1cc(N)cc2c1nc(C(F)F)n2-c1nc(N2CCOCC2)nc(N2CCN(S(=O)(=O)CCN(C)C)CC2)n1` [Example 84, N-[2-({4-[4-[6-amino-2-(difluoromethyl)-4-methoxy-1H-benzimidazol-1-yl]-6-(4-morpholinyl)-1,3,5-triazin-2-yl]-1-piperazinyl}sulfonyl)ethyl]-N,N-dimethylamine], the IC50 (NZB5; [5]) was under 100 nM and the IC50 (NZOV9; [6]) was over 1000 nM.

For `COc1cccc2c1nc(C(F)F)n2-c1nc(N2CCOCC2)c2cnn(C3CCN(S(=O)(=O)CCN(C)C)CC3)c2n1` [Example 99, N-[2-({4-[6-[2-(difluoromethyl)-4-methoxy-1H-benzimidazol-1-yl]-4-(4-morpholinyl)-1H-pyrazolo[3,4-d]pyrimidin-1-yl]-1-piperidinyl}sulfonyl)ethyl]-N,N-dimethylamine], the IC50 (NZB5; [5]) was under 100 nM and the IC50 (NZOV9; [6]) was under 100 nM.
